# Earlier results in patent US20240115695A1, “Method of Obtaining Betulin as an Adjuvant in a Vaccine Against Coronavirus SARS-COV-2” (BETUVAKS LIMITED LIABILITY COMPANY, priority 2020, published 2024).
# Legend:
# [1] = in vivo
SMILES,LD50 [1],MPC [1],solubility of betulin
"C1CCOC1 [THF, tetrahydrofuran]",2300 mg/kg,100 mg/m^3,
C=C(C)[C@@H]1CC[C@]2(CO)CC[C@]3(C)[C@H](CC[C@@H]4[C@@]5(C)CC[C@H](O)C(C)(C)[C@@H]5CC[C@]43C)[C@@H]12 [betulin],,,less than 1 μg/mL
